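Cultured in 96-well plates, cells were exposed to test compound for 48 hours across five concentrations. Abbreviation: GI50, concentration required for 50% inhibition of growth. At the TGI there is no net growth.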
Legend:
Experiment in all cases: growth of human tumour cells (NCI), 48 h
HL-60(TB) leukemia = test system: HL-60(TB) leukemia
SF-539 CNS = test system: SF-539 CNS
U251 CNS = test system: U251 CNS
RPMI-8226 leukemia = test system: RPMI-8226 leukemia
IGROV1 ovarian = test system: IGROV1 ovarian
UACC-257 melanoma = test system: UACC-257 melanoma
NCI-H226 lung = test system: NCI-H226 lung
SK-MEL-2 melanoma = test system: SK-MEL-2 melanoma

SMILES	TGI (HL-60(TB) leukemia) [µM]	TGI (SF-539 CNS) [µM]	TGI (U251 CNS) [µM]	TGI (RPMI-8226 leukemia) [µM]	TGI (IGROV1 ovarian) [µM]	TGI (UACC-257 melanoma) [µM]	TGI (NCI-H226 lung) [µM]	TGI (SK-MEL-2 melanoma) [µM]	GI50 (HL-60(TB) leukemia) [µM]	GI50 (SF-539 CNS) [µM]	GI50 (U251 CNS) [µM]	GI50 (RPMI-8226 leukemia) [µM]	GI50 (UACC-257 melanoma) [µM]	GI50 (NCI-H226 lung) [µM]	GI50 (SK-MEL-2 melanoma) [µM]	GI50 (IGROV1 ovarian) [µM]
O=C(O)C1C(C(=O)Nc2ccc3c(c2)Cc2ccccc2-3)C2(Cl)C(Cl)=C(Cl)C1(Cl)C2(Cl)Cl (centres undefined)	55.8	28.9	29.7	32	44.4	48.2	88	36.2								
ClC1=C(Cl)C(Cl)=C(Cl)C1=C/C=C/c1ccccc1		0.699	1.37	0.275	0.0455	0.41	0.653	0.678	0.329	0.206	0.346	< 0.0374	0.184	0.236	0.256	
CCSCC(N)C(=O)O (centres undefined)	> 100		> 100	> 100	> 100	> 100	> 100	> 100								
CC(C)[C@@]12C[C@@H](OC(=O)[C@H]3CO3)[C@@](C)(O1)[C@@H]1CC[C@@H](C)[C@H]1[C@@H]2OC(=O)/C=C/c1ccccc1	44.5	43.3	> 80.6	68.2	> 83.4	50.6	32.2	47.7	13.4	17.5	22.9	13.5	19.5	13.8	16.7	23.7
CCCCCCCCCCCCCCCCCC1=NCCN1CS(=O)(=O)O	39.9	46.8	29	90.1	14.1	33.9	40.1	67.4	14.3	19.4	9.54	26.6	17.1	17.4	27.7	3.9
CN1CCCNc2c(c(=O)c2=O)NCCCN(C)CCCNc2c(c(=O)c2=O)NCCCN(C)CCCNc2c(c(=O)c2=O)NCCCN(C)CCCNc2c(c(=O)c2=O)NCCCN(C)CCCNc2c(c(=O)c2=O)NCCCN(C)CCCNc2c(c(=O)c2=O)NCCCN(C)CCCNc2c(c(=O)c2=O)NCCC1	32.4	7.69	> 50	31.2	23.8	27	21.8	31.6	5.82	1.89	2.23	3.51	3.61	8.43	3.12	3.13
COc1ccccc1-n1c(-c2cc(O)ccc2C)cn2c3c(=O)[nH]c(=O)n(C)c3nc12	> 100	> 100	> 100	> 100	13.9	> 100	> 100	> 100	> 100	8.86	22.2	> 100	> 100	78.7	> 100	3.52
CN(C)c1ccc(C(=C2C=CC(=[N+](C)C)C=C2)c2ccc(N(C)C)cc2)cc1 (tested in a mixture with another compound)	0.677	0.748	1.34		1.78	1.3		0.545	0.125	0.0643		0.04	0.211			0.161
COc1cc(NCCCCN=C(N)NC(N)=NC(C)C)c2ncccc2c1	10.9	22.2	21.1	11	6.32	10.5	> 100	14.9	3.47	8.14	5.65	1.51	3.26	27	3.8	0.439
CC(C)(C)[Si](C)(C)OCC1OC(n2cnc3c(NC(=O)c4ccccc4)ncnc32)CC1O (centres undefined)	49.2	41	51.6	47	91.3	> 100	66.5	57.9								
CCCCCCCC/C=C/CCCCCCCCC1=NCCN1CCO	6.35	3.02	3.67		6.19	25	33.7	25.1	2.45	1.64	1.78		11.8	9.91	11.9	2.58
COc1cc2c(cc1OCCOS(C)(=O)=O)N=C[C@@H]1CCCN1C2=O	55.9	47.2	31.7	48.8	99.1	42.8	33.5	> 100		18.6	17.1	12.2	18.2	15.4		
NC(=O)C1=NNc2ccccc2C(=O)N1c1ccccc1		> 100	> 100	> 100	> 100	> 100	> 100	> 100								
CS(=O)CCCCCN=C=S (centres undefined)			15.8	14.5	21.6	19.7	44.4	14.7			4.42	3.79	4.35	17.5	3.43	4.88
CSc1cnn(CCC#N)c(=O)n1	> 100	> 100	> 100	> 100	> 100	> 100	> 100									
CCOc1ccc([C@@H]2[C@@H](Oc3ccccc3)C(=O)N2c2cc(OC)c(OC)c(OC)c2)cc1	0.0691		> 100	> 100	> 100	> 100	> 100	> 100	0.0263		0.0462	0.0486	86.4	1.13	0.097	0.15
CCN(CC)CCCNc1cccc2c(SCc3ccccc3)ccnc12		3.13	3.25	3.37	3.75	3.85	15.6	3.56		1.63	1.69	1.24	2.09	3.45	1.89	1.9
